Source: US5032599A, “N-(pyrrol-l-yl)pyridinamines” (Hoechst-Roussel Pharmaceuticals Inc., priority 1988, dated 1991)
Structures can show the parent of a compound that is named as a salt.

System: Scopolamine Induced Memory Deficit
Test: Dark Avoidance Assay (reversal of scopolamine induced memory deficit)
Format: in vivo
Details: mice, retest after 24 hours
Experimental: Dark Avoidance Asssay In this assay mice are tested for their ability to remember an unpleasant stimulus for a period of 24 hours. A mouse is placed in a chamber that contains a dark compartment; a strong incandescent light drives it to the dark compartment, where an electric shock is administered through metal plates on the floor. The animal is removed from the testing apparatus and tested again, 24 hours later, for the ability to remember the electric shock. If scolopamine, an anticholinergic that is known to cause memory impairment, is administered before an animal's initial exposure to the test chamber, the animal re-enters the dark compartment shortly after being placed in the test chamber 24 hours later. This effect of scopolamine is blocked by an active test compound, resulting in a greater interval before re-entry into the dark compartment. The results for an active compound are expressed as the percent of a group of animals in which the effect of scopolamine is blocked, as manifested by an increased interval between being placed in the test chamber and re-entering the dark compartment.

| Compound | % of Animals With Scopolamine Induced Memory Deficit Reversed (2.5 mg/kg by body weight) | % of Animals With Scopolamine Induced Memory Deficit Reversed (5.0 mg/kg by body weight) | other results |
| --- | --- | --- | --- |
| CN(c1ccncc1)n1cccc1C=O [1-[N-Methyl-N-(4-pyridinyl)]aminopyrrole-2-carboxaldehyde maleate] | – | – | % of Animals With Scopolamine Induced Memory Deficit Reversed (1.25 mg/kg by body weight): 60% |
| c1ccn(Nc2ccncc2)c1 [N-(1H-Pyrrol-1-yl)-4-pyridinamine] | – | – | % of Animals With Scopolamine Induced Memory Deficit Reversed (0.63 mg/kg by body weight): 21% |
| CCN(c1ccncc1)n1cccc1Cl.Cl [N-(2-Chloro-1H-pyrrol-1-yl)-N-ethyl-4-pyridinamine hydrochloride] | 33% | – | – |
| CN(c1ccncc1)n1cccc1.Cl [N-Methyl-N-(1H-pyrrol-1-yl)-4-pyridinamine hydrochloride] | 43% | – | – |
| CC[C@@H]1C(=O)OC[C@@H]1Cc1cncn1C [Pilocarpine, reference compound] | – | 23% | – |
| CC(O)c1cccn1N(C)c1ccncc1 (stereo not drawn) [α-methyl-1-[[N-(4-pyridinyl)-N-methyl]amino]-1H-pyrrole-2-methanol maleate] | – | 19% | – |
